Counter-ions that a name gives are not always drawn.
target: T1, histamine H3 receptor (Homo sapiens, UniProt Q9Y5N1); assay: Histamine H3 functional antagonist assay (method B); format: biochemical; details: [35S]-GTPγS SPA, membrane prepared from cultured H3 cells, histamine at EC80, averages of a number of experiments, read-out: functional pKi (fpKi), antagonism (converted)
T1 construct: expressed in transfected cells; host or cells: CHO K1 cells (pSwitch/pGene GeneSwitch system, mifepristone-induced), clone 3H3; membranes
T1 sequence (Q9Y5N1 whole entry): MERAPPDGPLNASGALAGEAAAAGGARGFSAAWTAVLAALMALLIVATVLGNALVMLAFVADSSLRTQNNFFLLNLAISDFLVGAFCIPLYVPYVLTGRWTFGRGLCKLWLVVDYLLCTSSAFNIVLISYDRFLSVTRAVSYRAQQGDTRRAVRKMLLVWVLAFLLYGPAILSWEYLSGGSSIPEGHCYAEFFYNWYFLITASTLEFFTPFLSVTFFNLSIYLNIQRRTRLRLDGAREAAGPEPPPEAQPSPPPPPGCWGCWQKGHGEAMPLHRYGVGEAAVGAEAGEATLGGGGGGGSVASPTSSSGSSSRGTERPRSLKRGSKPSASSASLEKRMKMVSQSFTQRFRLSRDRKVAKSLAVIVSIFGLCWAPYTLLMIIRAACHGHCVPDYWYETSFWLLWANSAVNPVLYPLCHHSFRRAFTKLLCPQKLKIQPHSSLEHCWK
Description: (§1) A membrane preparation containing histamine H3 receptors may be prepared in accordance with the following procedures:
(§2) (i) Generation of Histamine H3 Cell Line
(§3) DNA encoding the human histamine H3 gene (Huvar, A. et al. (1999) Mol. Pharmacol. 55(6), 1101-1107) was cloned into a holding vector, pcDNA3.1 TOPO (InVitrogen) and its cDNA was isolated from this vector by restriction digestion of plasmid DNA with the enzymes BamH1 and Not-1 and ligated into the inducible expression vector pGene (InVitrogen) digested with the same enzymes. The GeneSwitch™ system (a system where in transgene expression is switched off in the absence of an inducer and switched on in the presence of an inducer) was performed as described in U.S. Pat. Nos. 5,364,791; 5,874,534; and 5,935,934. Ligated DNA was transformed into competent DH5α E. coli host bacterial cells and plated onto Luria Broth (LB) agar containing Zeocin™ (an antibiotic which allows the selection of cells expressing the sh ble gene which is present on pGene and pSwitch) at 50 μg ml^−1. Colonies containing the re-ligated plasmid were identified by restriction analysis. DNA for transfection into mammalian cells was prepared from 250 ml cultures of the host bacterium containing the pGeneH3 plasmid and isolated using a DNA preparation kit (Qiagen Midi-Prep) as per manufacturers guidelines (Qiagen).
(§4) CHO K1 cells previously transfected with the pSwitch regulatory plasmid (InVitrogen) were seeded at 2×10e6 cells per T75 flask in Complete Medium, containing Hams F12 (GIBCOBRL, Life Technologies) medium supplemented with 10% v/v dialysed foetal bovine serum, L-glutamine, and hygromycin (100 μg ml^−1), 24 hours prior to use. Plasmid DNA was transfected into the cells using Lipofectamine plus according to the manufacturers guidelines (InVitrogen). 48 hours post transfection cells were placed into complete medium supplemented with 500 μg ml^−1 Zeocin™.
(§5) 10-14 days post selection 10 nM Mifepristone (InVitrogen), was added to the culture medium to induce the expression of the receptor. 18 hours post induction cells were detached from the flask using ethylenediamine tetra-acetic acid (EDTA; 1:5000; InVitrogen), following several washes with phosphate buffered saline pH 7.4 and resuspended in Sorting Medium containing Minimum Essential Medium (MEM), without phenol red, and supplemented with Earles salts and 3% Foetal Clone II (Hyclone). Approximately 1×10e7 cells were examined for receptor expression by staining with a rabbit polyclonal antibody, 4a, raised against the N-terminal domain of the histamine H3 receptor, incubated on ice for 60 minutes, followed by two washes in sorting medium. Receptor bound antibody was detected by incubation of the cells for 60 minutes on ice with a goat anti rabbit antibody, conjugated with Alexa 488 fluorescence marker (Molecular Probes). Following two further washes with Sorting Medium, cells were filtered through a 50 μm Filcon™ (BD Biosciences) and then analysed on a FACS Vantage SE Flow Cytometer fitted with an Automatic Cell Deposition Unit. Control cells were non-induced cells treated in a similar manner. Positively stained cells were sorted as single cells into 96-well plates, containing Complete Medium containing 500 μg ml^−1 Zeocin™ and allowed to expand before reanalysis for receptor expression via antibody and ligand binding studies. One clone, 3H3, was selected for membrane preparation.
(ii) Membrane Preparation from Cultured Cells
All steps of the protocol are carried out at 4° C. and with pre-cooled reagents. The cell pellet is resuspended in 10 volumes of homogenisation buffer (50 mM N-2-hydroxyethylpiperazine-N′-2-ethanesulfonic acid (HEPES), 1 mM ethylenediamine tetra-acetic acid (EDTA), pH 7.4 with KOH, supplemented with 10e-6M leupeptin (acetyl-leucyl-leucyl-arginal; Sigma L2884), 25 μg/ml bacitracin (Sigma B0125), 1 mM phenylmethylsulfonyl fluoride (PMSF) and 2×10e-6M pepstain A (Sigma)). […]

| Compound | Ki [nM] |
| --- | --- |
| O=C(C1CCN(c2ccc(C(F)(F)F)nc2)C1)N1CCCN(C2CCC2)CC1 (racemic) [Example E17, (R,S)-1-Cyclobutyl-4-({1-[6-(trifluoromethyl)-3-pyridinyl]-3-pyrrolidinyl}carbonyl)hexahydro-1H-1,4-diazepine] | ≤ 0.316 |
| Cc1noc(-c2ccc(N3CC[C@H](C(=O)N4CCN(C(C)C)CC4)C3)cn2)n1 [Example E54, 1-(1-Methylethyl)-4-({(3S)-1-[6-(3-methyl-1,2,4-oxadiazol-5-yl)-3-pyridinyl]-3-pyrrolidinyl}carbonyl)piperazine hydrochloride] | ≤ 0.316 |
| Cc1cn(-c2ccc(N3CC[C@H](C(=O)N4CCN(C(C)C)CC4)C3)cc2)cn1 [Example E55, 1-(1-Methylethyl)-4-({(3S)-1-[4-(4-methyl-1H-imidazol-1-yl)phenyl]-3-pyrrolidinyl}carbonyl)piperazine dihydrochloride] | ≤ 0.316 |
| Cc1noc(-c2ccc(N3CC[C@H](C(=O)N4CCCN(CC5CC5)CC4)C3)cn2)n1 [Example E58, hydrochloride] | ≤ 0.316 |

target: T1, histamine H3 receptor; assay: Histamine H3 functional antagonist assay (method A); format: biochemical; details: [35S]-GTPγS SPA, membrane prepared from cultured H3 cells, histamine at EC80, averages of a number of experiments, read-out: functional pKi (fpKi), antagonism (converted)
Description: as §1, §2, §3, §4, §5
(ii) Membrane Preparation from Cultured Cells […]

| Compound | Ki [nM] |
| --- | --- |
| O=C(C1CCN(c2ccc(C(F)(F)F)nc2)C1)N1CCCN(C2CCC2)CC1 (racemic) [Example E17, (R,S)-1-Cyclobutyl-4-({1-[6-(trifluoromethyl)-3-pyridinyl]-3-pyrrolidinyl}carbonyl)hexahydro-1H-1,4-diazepine] | < 0.316 |
| CC(C)N1CCCN(C(=O)C2CCN(c3ccc(C(F)(F)F)nc3)C2)CC1 (racemic) [Example E22, (R,S)-1-(1-Methylethyl)-4-({(1-[6-(trifluoromethyl)-3-pyridinyl]-3-pyrrolidinyl}carbonyl)hexahydro-1H-1,4-diazepine hydrochloride] | < 10 |
| O=C(C1CCN(c2ccnc(C(F)(F)F)c2)C1)N1CCCN(C2CCC2)CC1 (racemic) [Example E23, (R,S)-1-Cyclobutyl-4-({1-[2-(trifluoromethyl)-4-pyridinyl]-3-pyrrolidinyl}carbonyl)hexahydro-1H-1,4-diazepine hydrochloride] | < 0.316 |
| O=C([C@@H]1CCN(c2ccc(C(F)(F)F)nc2)C1)N1CCCN(C2CCC2)CC1 (single isomer, unassigned) [Example E17A, hydrochloride] | < 0.316 |
| O=C([C@H]1CCN(c2ccc(C(F)(F)F)nc2)C1)N1CCCN(C2CCC2)CC1 (single isomer, unassigned) [Example E17B, hydrochloride] | < 0.316 |

Reference: patent publication US20080045506A1 (GLAXO GROUP LIMITED, priority 2004, published 2008)
